According to ChEMBL document CHEMBL1201862, “PubChem BioAssay data set” (2004):
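Each compound was tested at five concentrations against cells in 96-well plates for 48 hours. Here, GI50 denotes the concentration required for 50% inhibition of growth.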 The source made the active and inactive calls. Cut-off read from the data, not from the text of the source: active = GI50 up to about 1.1 µM and inactive = higher.

What was measured:
Assay in all cases: NCI-60 cell line screen, 48 h
HOP-92 = tested on: HOP-92
TK-10 = tested on: TK-10
UO-31 = tested on: UO-31
ACHN = tested on: ACHN
OVCAR-4 = tested on: OVCAR-4
UACC-257 = tested on: UACC-257
Malme-3M = tested on: Malme-3M
SK-MEL-28 = tested on: SK-MEL-28
SF-539 = tested on: SF-539
HOP-62 = tested on: HOP-62
EKVX = tested on: EKVX
NCI-H23 = tested on: NCI-H23
OVCAR-5 = tested on: OVCAR-5
U-251 = tested on: U-251
SW-620 = tested on: SW-620
A549 = tested on: A549
NCI-H226 = tested on: NCI-H226
SNB-19 = tested on: SNB-19
OVCAR-8 = tested on: OVCAR-8

Measured: GI50

COC(=O)C(=O)Nc1cc2c3c(c1)Oc1cccc4c1C3(C)c1c(cccc1O2)O4
inactive: HOP-92 72.6 µM | TK-10 99.5 µM | UO-31 98.6 µM | ACHN > 82 µM | OVCAR-4 > 100 µM | UACC-257 > 100 µM | Malme-3M > 65.9 µM | SK-MEL-28 > 100 µM | SF-539 33 µM | HOP-62 > 100 µM | EKVX > 82.6 µM | NCI-H23 > 100 µM | OVCAR-5 > 55.2 µM | U-251 > 100 µM | SW-620 > 100 µM | A549 > 100 µM | NCI-H226 4.75 µM | SNB-19 > 100 µM

CCOC(=O)CCc1c(C)c2c(OC)cc(OC)cc2oc1=O
inactive: HOP-92 22.3 µM | TK-10 > 100 µM | UO-31 65.9 µM | ACHN 42.4 µM | OVCAR-4 > 100 µM | UACC-257 > 100 µM | Malme-3M 51.3 µM | SK-MEL-28 > 100 µM | SF-539 > 100 µM | HOP-62 > 100 µM | EKVX 54.7 µM | NCI-H23 > 100 µM | OVCAR-5 59.3 µM | U-251 > 100 µM | SW-620 > 100 µM | A549 > 100 µM | OVCAR-8 > 100 µM | NCI-H226 25.5 µM | SNB-19 > 100 µM

O=C(Cc1nc2ccccc2s1)C(=O)Nc1cccc(C(F)(F)F)c1
inactive: HOP-92 > 100 µM | TK-10 > 100 µM | UO-31 > 100 µM | ACHN > 100 µM | OVCAR-4 > 100 µM | UACC-257 > 100 µM | Malme-3M > 100 µM | SK-MEL-28 > 100 µM | SF-539 > 100 µM | HOP-62 > 100 µM | EKVX > 100 µM | NCI-H23 > 100 µM | U-251 > 100 µM | SW-620 > 100 µM | A549 > 100 µM | OVCAR-8 > 100 µM | NCI-H226 > 100 µM | SNB-19 > 100 µM

O=C(CC1C(=O)Nc2ccccc2[S+]1[O-])Nc1ccccc1 (centres undefined)
inactive: HOP-92 53.8 µM | TK-10 > 100 µM | UO-31 37.5 µM | ACHN 59.7 µM | OVCAR-4 > 100 µM | UACC-257 > 100 µM | Malme-3M > 100 µM | SK-MEL-28 > 100 µM | SF-539 52.7 µM | HOP-62 > 100 µM | EKVX > 100 µM | NCI-H23 > 100 µM | OVCAR-5 > 100 µM | U-251 > 100 µM | SW-620 > 100 µM | A549 > 100 µM | OVCAR-8 36.4 µM | NCI-H226 > 100 µM | SNB-19 > 100 µM
